Read-outs that look alike come from different tables or passages of the source. Starred links: 1 amine or outer side, 2 acyl side, 3 side chain; linkers in the order of their positions; H or OH if unused. Non-standard residues stand in square brackets, D forms with d. Groups on a side chain read outwards from the residue. *: point of attachment. C20 diacid = O=C(O)CCCCCCCCCCCCCCCCCCC(=O)*; C18 diacid = O=C(O)CCCCCCCCCCCCCCCCC(=O)*; γGlu = O=C(O)[C@H](CCC(=O)[*:2])N[*:1]; αMe4Pal = C[C@](N)(Cc1ccncc1)C(=O)O; 4Pal = N[C@@H](Cc1ccncc1)C(=O)O; αMeL = CC(C)C[C@](C)(N)C(=O)O; Orn = NCCC[C@H](N)C(=O)O; Dap = NC[C@H](N)C(=O)O; AEEA = NCCOCCOCC(=O)O; Aib = CC(C)(N)C(=O)O
Assays:
Type in all cases: cell-based
hGIPR [1] = molecular target: T1, hGIPR (Homo sapiens, UniProt P48546); assay: Functional cAMP activity in the presence of 1% HSA
T1 sequence (P48546 22-466): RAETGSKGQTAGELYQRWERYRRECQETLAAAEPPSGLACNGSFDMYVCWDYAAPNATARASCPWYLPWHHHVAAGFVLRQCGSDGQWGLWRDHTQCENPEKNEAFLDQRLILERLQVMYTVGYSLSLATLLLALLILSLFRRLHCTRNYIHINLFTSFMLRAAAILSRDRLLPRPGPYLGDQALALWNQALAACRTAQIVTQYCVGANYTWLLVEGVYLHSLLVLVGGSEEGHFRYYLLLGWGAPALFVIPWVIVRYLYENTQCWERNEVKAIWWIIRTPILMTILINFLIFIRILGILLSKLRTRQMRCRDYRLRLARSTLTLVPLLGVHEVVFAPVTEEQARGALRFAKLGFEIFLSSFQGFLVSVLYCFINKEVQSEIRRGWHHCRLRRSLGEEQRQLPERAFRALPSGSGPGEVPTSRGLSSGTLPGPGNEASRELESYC

hGLP-1R [2] = molecular target: T2, hGLP-1R (Homo sapiens, UniProt P43220); assay: Functional cAMP activity in the presence of 1% HSA
human GcgR = human GcgR (Homo sapiens, UniProt P47871); assay: Functional cAMP activity in the presence of 1% HSA
hGIPR [3] = molecular target: T1, hGIPR; assay: Functional cAMP activation in the presence of 0.1% casein (no HSA);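 for Relative cAMP EC50, hGIPR: intracellular cAMP rise after 30 min at 37 °C read by HTRF against a standard curve, scaled between buffer alone (0%) and top control ligand concentration (100%), four-parameter fit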;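 for Relative cAMP EC50, hGLP-1R: intracellular cAMP rise after 30 min at 37 °C read by HTRF, normalized between buffer only (0%) and maximal control ligand (100%), four-parameter variable-slope fit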;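 for Relative cAMP EC50, hGcgR: intracellular cAMP rise after 30 min at 37 °C, read by HTRF against a cAMP standard curve, scaled from buffer only (0%) to maximal control ligand response (100%)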
hGLP-1R [4] = molecular target: T2, hGLP-1R; assay: as above
hGcgR = hGcgR (Homo sapiens, UniProt P47871); assay: as above;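 note: intracellular cAMP rise after 30 min at 37 °C, read by HTRF against a cAMP standard curve, scaled from buffer only (0%) to maximal control ligand response (100%)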
human GLP1-R = human GLP1-R (Homo sapiens, UniProt P43220); assay: GLP1-R internalization assay in HEK293 cells; conditions: for Internalization % TOP: normalized to maximum concentration of GLP-1 (100%)
[5] = read-out: cAMP Rel EC50, hGLP-1R
[6] = in the presence of 0.1% casein (no HSA), geometric mean, read-out: Relative cAMP EC50, hGIPR
[7] = in the presence of 0.1% casein (no HSA), geometric mean, read-out: Relative cAMP EC50, hGLP-1R
[8] = in the presence of 0.1% casein (no HSA), geometric mean, read-out: Relative cAMP EC50, hGcgR
[9] = HEK293 cells expressing SNAP-GLP-1R, read-out: GLP1R Internalization EC50

hGcgR, sequence (P47871 26-477): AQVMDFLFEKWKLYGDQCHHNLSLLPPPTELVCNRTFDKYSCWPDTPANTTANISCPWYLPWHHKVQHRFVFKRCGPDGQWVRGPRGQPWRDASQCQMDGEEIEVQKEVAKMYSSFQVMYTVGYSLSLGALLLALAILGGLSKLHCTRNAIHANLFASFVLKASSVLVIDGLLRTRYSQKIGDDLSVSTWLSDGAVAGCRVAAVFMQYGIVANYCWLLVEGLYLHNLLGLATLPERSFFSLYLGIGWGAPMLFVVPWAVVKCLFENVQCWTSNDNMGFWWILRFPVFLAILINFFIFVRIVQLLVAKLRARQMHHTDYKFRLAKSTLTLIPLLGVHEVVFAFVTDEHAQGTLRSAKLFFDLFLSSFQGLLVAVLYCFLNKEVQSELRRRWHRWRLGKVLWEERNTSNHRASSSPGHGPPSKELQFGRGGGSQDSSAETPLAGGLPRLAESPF
human GcgR, sequence (P47871 26-477): as above
T2 sequence (P43220 24-463): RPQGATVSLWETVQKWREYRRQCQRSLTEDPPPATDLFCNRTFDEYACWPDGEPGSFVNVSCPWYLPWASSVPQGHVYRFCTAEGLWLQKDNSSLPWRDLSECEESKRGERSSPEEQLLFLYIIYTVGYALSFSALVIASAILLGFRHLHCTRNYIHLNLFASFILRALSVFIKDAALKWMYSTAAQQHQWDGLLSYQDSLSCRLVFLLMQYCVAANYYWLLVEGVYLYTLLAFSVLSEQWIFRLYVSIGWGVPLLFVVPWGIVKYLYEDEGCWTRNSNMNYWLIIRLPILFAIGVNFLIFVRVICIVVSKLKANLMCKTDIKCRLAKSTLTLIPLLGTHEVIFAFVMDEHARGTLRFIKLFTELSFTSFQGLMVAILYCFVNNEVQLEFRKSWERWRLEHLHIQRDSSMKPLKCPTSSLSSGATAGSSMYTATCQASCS
human GLP1-R, sequence (P43220 24-463): as above

Substance | EC50 (hGIPR [1]; read-out: cAMP Rel EC50, hGIPR) [nM] | EC50 (hGLP-1R [2]; [5]) [nM] | EC50 (human GcgR; read-out: cAMP Rel EC50, hGcgR) [nM] | EC50 (hGIPR [3]; [6]) [nM] | EC50 (hGLP-1R [4]; [7]) [nM] | EC50 (hGcgR; [8]) [nM] | EC50 (human GLP1-R; [9]) [nM] | Internalization % TOP (human GLP1-R) [%] | EC50 (hGIPR [1]) [nM] | EC50 (hGLP-1R [2]) [nM] | EC50 (human GcgR) [nM] | EC50 (hGIPR [3]) [nM] | EC50 (hGLP-1R [4]) [nM] | EC50 (hGcgR) [nM] | EC50 (human GLP1-R) [nM]
H-Y[Aib]QGTFTSDFSK[αMeL]LDKK([AEEA-γGlu-C20 diacid])AQ[Aib]AFIEYLLE[Aib]GPSSGAPPPGGS-NH2 [Example 43] | 29.6 | 539 | 850 | 0.101 | 1.55 | 2.71 | 58.2 | 68.3 |  |  |  |  |  |  | 
H-Y[Aib]QGTFTSDFSK[αMeL]LDKK([AEEA-γGlu-C20 diacid])AQ[Aib]AFIEYLLE[Aib]GPSSGAPPPSGS-NH2 [Example 45] | 33.4 | 493 | 879 | 0.112 | 1.52 | 2.08 | 52.6 | 62.1 |  |  |  |  |  |  | 
H-Y[Aib]QGTFTSDFSK[αMeL]LDKK([AEEA-γGlu-C20 diacid])AQ[Aib]AFIEYLLE[Aib]GPSSGAPPPSSG-NH2 [Example 44] |  |  |  |  |  |  | 51.5 | 65 | 35.9 | 591 | 1050 | 0.116 | 1.66 | 2.46 | 
H-Y[Aib]QGTFTSDFSK[αMeL]LDKK([γGlu-γGlu-C18 diacid])AQ[Aib]AFIEYLLEGGPSSGAPPPSEG-NH2 [Example 58] | 3.75 | 20.7 | 115 | 0.175 | 2.93 | 4.86 | 56.2 | 78.1 |  |  |  |  |  |  | 
H-Y[Aib]QGTFTSDFSQ[αMeL]LDKK([AEEA-γGlu-C18 diacid])AQ[αMe4Pal]AFIEYLIE[Aib]GESSGAPPPSGE-NH2 [Example 233] |  |  |  |  |  |  |  | 41.8 | 28.1 | 223 | 453 | 0.0884 | 0.874 | 2.25 | 24.8
H-Y[Aib]QGTFTSDFSR[αMeL]LDKK([AEEA-AEEA-γGlu-C18 diacid])AQ[Aib]AFIEYLLE[Aib]GPSSGAPPPSGS-NH2 [Example 80] |  |  |  |  |  |  |  | 48.2 | 10.1 | 627 | 1190 | 0.0593 | 2.55 | 7.44 | 35.8
H-Y[Aib]QGTFTSDFSR[αMeL]LDKK([AEEA-γGlu-C18 diacid])AQ[Aib]AFIEYLLE[Aib]GPSSGAPPPSGS-NH2 [Example 79] |  |  |  |  |  |  |  | 45.3 | 14.3 | 437 | 903 | 0.0773 | 1.8 | 3.08 | 56.6
H-Y[Aib]QGTFTSDFSR[αMeL]LDKK([AEEA-γGlu-C18 diacid])AQ[αMe4Pal]AFIEYLIE[Aib]GESSGAPPPSGE-NH2 [Example 231] |  |  |  |  |  |  |  | 27.7 | 27.4 | 223 | 443 | 0.119 | 1.3 | 2.12 | 36.1
H-Y[Aib]QGTFTSDFSR[αMeL]LDKK([AEEA-γGlu-C20 diacid])AQ[Aib]AFIEYLLE[Aib]GPSSGAPPPGGS-NH2 [Example 42] |  |  |  |  |  |  |  | 58.3 | 32.3 | 700 | 1520 | 0.115 | 2.17 | 5.83 | 61.4
H-Y[Aib]QGTFTSDFS[Dap][αMeL]LDKK([AEEA-γGlu-C18 diacid])AQ[Aib]AFIEYLLEGGPSSGAPPPGGS-NH2 [Example 68] | 85.1 | 612 | 1160 | 0.46 | 3.07 | 8.55 | 95.2 | 33.8 |  |  |  |  |  |  | 
H-Y[Aib]QGTFTSDFS[Orn][αMeL]LDKK([AEEA-AEEA-γGlu-C18 diacid])AQ[Aib]AFIEYLLEGGPSSGAPPPGES-NH2 [Example 118] | 63.4 | 1450 | 2460 | 0.43 | 6.03 | 7.02 | 82.3 | 46.4 |  |  |  |  |  |  | 
H-Y[Aib]QGTFTSDFS[Orn][αMeL]LDKK([AEEA-AEEA-γGlu-C18 diacid])AQ[Aib]AFIEYLLEGGPSSGAPPPSGE-NH2 [Example 107] | 61.3 | 1110 | 1690 | 0.426 | 8.5 | 10.8 | 150 | 45.1 |  |  |  |  |  |  | 
H-Y[Aib]QGTFTSDFS[Orn][αMeL]LDKK([AEEA-AEEA-γGlu-C18 diacid])AQ[Aib]AFIEYLLE[Aib]GESSGAPPPSGS-NH2 [Example 179] | 21.3 | 904 | 1440 | 0.104 | 5.81 | 4.82 | 63.4 | 48.4 |  |  |  |  |  |  | 
H-Y[Aib]QGTFTSDFS[Orn][αMeL]LDKK([AEEA-AEEA-γGlu-C18 diacid])AQ[Aib]AFIEYLLE[Aib]GHSSGAPPPSGS-NH2 [Example 181] | 12.7 | 365 | 772 | 0.133 | 4.39 | 6.25 | 116 | 47.5 |  |  |  |  |  |  | 
H-Y[Aib]QGTFTSDFS[Orn][αMeL]LDKK([AEEA-AEEA-γGlu-C18 diacid])AQ[Aib]AFIEYLLE[Aib]GPSSGAPPPSGE-NH2 [Example 111] | 10.4 | 878 | 1260 | 0.0888 | 5.06 | 4.25 | 49.1 | 46.4 |  |  |  |  |  |  | 
H-Y[Aib]QGTFTSDFS[Orn][αMeL]LDKK([AEEA-AEEA-γGlu-C18 diacid])AQ[Aib]AFIEYLLE[Aib]GPSSGEPPPSGS-NH2 [Example 166] | 21 | 1500 | 724 | 0.118 | 6.96 | 3.82 | 74.6 | 44.2 |  |  |  |  |  |  | 
H-Y[Aib]QGTFTSDFS[Orn][αMeL]LDKK([AEEA-AEEA-γGlu-C18 diacid])AQ[Aib]AFIEYLLE[Aib]GPSSGEPPPSGT-NH2 [Example 167] | 24.7 | 1300 | 938 | 0.101 | 6.19 | 5.05 | 75.9 | 44.7 |  |  |  |  |  |  | 
H-Y[Aib]QGTFTSDFS[Orn][αMeL]LDKK([AEEA-AEEA-γGlu-C18 diacid])AQ[Aib]AFIEYLLE[Aib]G[4Pal]SSGAPPPSGS-NH2 [Example 183] | 13.7 | 295 | 504 | 0.0759 | 5.03 | 3.83 | 100 | 45.4 |  |  |  |  |  |  | 
H-Y[Aib]QGTFTSDFS[Orn][αMeL]LDKK([AEEA-AEEA-γGlu-C18 diacid])AQ[Aib]AFIEYLLE[dA]GPSSGEPPPSGE-NH2 [Example 117] | 29.9 | 524 | 867 | 0.267 | 6.4 | 4.75 | 45.5 | 51 |  |  |  |  |  |  | 
H-Y[Aib]QGTFTSDFS[Orn][αMeL]LDKK([AEEA-AEEA-γGlu-C18 diacid])AQ[Aib]AFIEYLLE[dA]GPSSGEPPPSGQ-NH2 [Example 157] | 22.2 | 496 | 838 | 0.183 | 3.04 | 4.16 | 60.3 | 53.3 |  |  |  |  |  |  | 
H-Y[Aib]QGTFTSDFS[Orn][αMeL]LDKK([AEEA-AEEA-γGlu-C18 diacid])AQ[Aib]AFIEYLLE[dA]GPSSGHPPPSGS-NH2 [Example 253] | 26.6 | 355 | 963 | 0.115 | 2.2 | 6.62 | 81.6 | 55.2 |  |  |  |  |  |  | 
H-Y[Aib]QGTFTSDFS[Orn][αMeL]LDKK([AEEA-AEEA-γGlu-C18 diacid])AQ[Aib]AFIEYLLE[dA]GPSSGHPPPSG[4Pal]-NH2 [Example 256] | 17.4 | 235 | 625 | 0.176 | 2.87 | 5.71 | 87.8 | 43.5 |  |  |  |  |  |  | 
H-Y[Aib]QGTFTSDFS[Orn][αMeL]LDKK([AEEA-AEEA-γGlu-C20 diacid])AQ[Aib]AFIEYLLE[Aib]GPSSGAPPPGEG-NH2 [Example 70] |  |  |  |  |  |  |  | 61.3 | 27.4 | 620 | 717 | 0.102 | 2.71 | 6.04 | 60

Source: patent US20240270821A1, “GIP/GLP1/GCG TRI-RECEPTOR AGONISTS AND USES THEREOF” (priority 2023, published 2024)
